Experimental data from paper PMC10307035, “Antiviral activity of singlet oxygen-photogenerating perylene compounds against SARS-CoV-2: Interaction with the viral envelope and photodynamic virion inactivation” (Virus Research, 2023).

Assays:
[1] = ROS generation rate / quantum yield, DPBF bleaching in methanol; type: physicochemical; conditions: for φROS (ROS generation quantum yield): in methanol, DPBF trap, 450–470 nm illumination, riboflavin as reference
Excerpt: The ROS generation rate was estimated using the spectrophotometric method, based on the absorption changes of 1,3-diphenylisobenzofuran (DPBF, Sigma Aldrich, Germany) in methanol solution. Irreversible oxidation of DPBF by singlet oxygen results in peroxide formation, and DPBF bleaching. When light of 400–450 nm was used as actinic, DPBF bleaching occurred without any photosensitizer (PS) in solution. Therefore, to study photosensitized ROS generation, we used a white MCWHLP1 LED (Thorlabs, USA) with filters to limit the radiation to the 450–470 nm range (5.5 mW/cm^2).
Spectrophotometric measurements were performed in a Qpod 2e (Quantum Northwest, USA) thermostated cuvette holder at 25 °C with magnetic stirring (500 rpm). Absorption spectra were recorded using a MayaPro spectrophotometer (Ocean Optics, USA) and a stabilized white light source with a SLS201L tungsten lamp (Thorlabs, USA). Illumination was uniform over the entire volume of the cuvette, to prevent artifacts associated with the diffusion of non-reacted components into the illuminated volume of the cuvette. In this case, the rate of irreversible bleaching of DPBF (412 nm) was the same under both continuous and pulsed irradiation with equal total irradiation time. Illumination was performed in a pulsed mode (Fig. S5A), with 1 s of illumination followed by 5 s of dark adaptation, during which the absorption spectrum of the PS-DPBF solution was recorded. Data processing was performed as previously described ([Gvozdev et al., 2020]).

[2] = system: SARS-CoV-2 (Wuhan strain); assay: Viral titer inhibition assay, SARS-CoV-2 in CaCo-2 cells; type: cell-based; conditions: 0–10 µM
[3] = ROS generation measurement with DMA trap in DMSO; type: physicochemical; conditions: for ROS generation, DMA trap, under blue light: 465–480 nm, 30 mW/cm^2, 10 min
Experimental: ROS generation was also estimated using 9,10-dimethylanthracene (DMA), another specific fluorescent singlet oxygen trap, which forms nonfluorescent 9,10-dimethylanthracene endoperoxide after ROS-mediated DMA oxidation. Compounds (0, 0.1, 1, and 10 µM) in DMSO were mixed with DMA (0.5 µM), and these solutions were irradiated for 10 min at room temperature (RT) with light-emitting diodes (LED, 465–480 nm) having approximate power density of 30 mW/cm^2 (device description in Fig. S7). DMA fluorescence intensity was measured at ex/em wavelengths of 370/432 nm in the presence or absence of α-tocopherol (3 µg/mL) as an antioxidant. Singlet oxygen generation was accompanied by a decreased fluorescence signal of the DMA probe ([Zeng et al., 2020]).

CaCo-2 cells [4] = assay: Cytotoxicity assay (Cell Counting Kit-8) in CaCo-2 cells; type: cell-based, human; conditions: up to 10 µM
Experimental: (§1) To determine the overall cytotoxicity of the tested compounds, Vero cells were cultured for 24 h in 96-well plates to form a confluent monolayer, and then were treated with the tested compounds at concentrations of 2 and 10 µM. After 48 h of cultivation in the dark at 37 °C under 5% CO2, the cell culture medium was aspirated. The potential cytotoxicity of the tested perylene derivatives was determined based on cell viability using Cell Counting Kit-8 (Dojindo Molecular Technologies, Munich, Germany) according to the manufacturer's instructions. The cell viabilities of compound-treated Vero cells were compared with those of control DMSO-treated cells. We also used the above-described protocol to assess the cytotoxicity of the selected perylene antivirals, at concentrations ranging from 0 to 10 µM, in CaCo-2 and CRFK cells.

SARS-CoV-2 = assay: Photodynamic inactivation of SARS-CoV-2 virions; type: cell-based; conditions: for antiviral activity after blue light irradiation of virus-compound mixture: 465–480 nm, 30 mW/cm^2, 10 min, then 60 min at 37 °C in the dark, plaque assay
Experimental: Virus in DMEM (titer of 10^5 PFU/mL) was mixed with the compounds (0–10 µM) in a microtiter plate, in triplicate, and irradiated for 10 min at RT with LEDs (465–480 nm) having an approximate power density of 30 mW/cm^2 (device description in supplement). As a negative control, virus was incubated for 10 min in the dark at RT. Subsequently, both irradiated and non-irradiated virus samples were incubated in the dark at 37 °C for 60 min. All manipulation with the samples before and after this incubation, i.e., mixing the compound with the virus, pipetting into a microtiter plate, etc., were performed in daylight. Viral titers were determined by plaque assays (performed also in daylight) and expressed as PFU/mL, as previously described ([Stefanik et al., 2021]). To eliminate the influence of daylight on compound activity, the whole experiment, including all manipulation with samples, was performed in a dark room under red light. The virus sample was mixed with the indicated compounds at concentrations from 0 to 10 μM or 100 μM, incubated for 60 min at 37 °C and virus viability was evaluated using a plaque assay (Fig. 9A).

[5] = system: feline infectious peritonitis virus (FIPV); type: cell-based, feline coronavirus (FCoV); conditions: 0–10 µM
Vero cells [6] = assay: Light-induced cytotoxicity in Vero cells; type: cell-based, African Green Monkey; conditions: 0–10 µM, 465–480 nm 10 min, then 24 h in the dark
Experimental: To determine the light-induced cytotoxicity of the tested compounds, Vero cells were cultured for 24 h in 96-well plates to form a confluent monolayer, and then were treated with the tested compounds at concentrations of 0 to 10 µM. Then, the compound-treated cells were irradiated for 10 min at RT with LEDs (465–480 nm) having an approximate power density of 30 mW/cm^2 (device description in Fig. S7). As a negative control, compound-treated cells were incubated for 10 min in the dark at RT. Subsequently, both irradiated and non-irradiated cell monolayers were incubated in the dark at 37 °C for 24 h. Then, the cell culture medium was aspirated and the potential cytotoxicity of the tested perylene derivatives was determined based on cell viability using Cell Counting Kit-8 (Dojindo Molecular Technologies, Munich, Germany) according to the manufacturer's instructions.

CRFK cells = assay: Cytotoxicity assay (Cell Counting Kit-8) in CRFK cells; type: cell-based, Felis catus; conditions: up to 10 µM
Experimental: as §1

Vero cells [7] = assay: Cytotoxicity assay (Cell Counting Kit-8) in Vero cells; type: cell-based, African Green Monkey; conditions: 10 µM, 48 h
Experimental: as §1

[8] = Spectrofluorometric analysis of interaction with liposomes; type: physicochemical
CaCo-2 cells [9] = assay: Cellular stress marker expression by RT-qPCR in CaCo-2 cells; type: cell-based, human
Experimental: RT-qPCR was performed to evaluate changes in the gene expression of cellular stress markers. […] Previous publications report the primer sequences and numbers of the Universal Probe Library (UPL; Roche Life Sciences, Germany) used for detection of ATF3, CDKN1A (p21), CYP1A1, DDIT3, HMOX1, HSPA1B (HSP70), and HSPA5 mRNAs ([Procházková et al., 2018]; [Šimečková et al., 2020]). […] TaqMan™ Gene Expression Assays (Thermo Fisher Scientific, Waltham, MA, USA) were used to determine the levels of FGF21 (Hs00173927_m1), GADD45A (Hs00169255_m1), GDF15 (Hs00171132_m1), and SRXN1 (Hs00607800_m1). The amplification was run in a 10-µL reaction mixture containing 1 µL of sample, using Kapa Probe Fast One-Step (Kapa Biosystems Pty, Cape Town, South Africa) on a LightCycler® 480 System (Roche Diagnostics, Czech Republic) using the previously published sequence ([Procházková et al., 2018]). Reference gene qPCR assays (Generi Biotech, Hradec Králové, Czech Republic) were used for the following housekeeping genes: human β2-Microglobulin (B2M; #3030), hydroxymethylbilane synthase (HMBS; #3032), and RNA polymerase II subunit A (POLR2A; #3035). We used an average of three reference gene Cp values to calculate the change in gene expression using the comparative threshold cycle method ([Schmittgen and Livak, 2008]).

Compound	φROS (ROS generation quantum yield) [1]	cell viability (in words) (Vero cells [7])	other results
O=c1[nH]c(=O)n([C@@H]2O[C@H](CO)[C@@H](O)[C@@H]2O)cc1C#Cc1ccc2c3cccc4cccc(c5cccc1c52)c43 [Compound 1, 5-(perylen-3-yl)ethynyl-arabino-uridine]	22.8 ± 0.4%		
O=c1[nH]c(=O)n([C@H]2C[C@H](O)[C@@H](CO)O2)cc1C#Cc1ccc2c3cccc4cccc(c5cccc1c52)c43 [Compound 2, 5-(perylen-3-yl)ethynyl-2′-deoxy-uridine]	20.9 ± 0.2%		anti-SARS-CoV-2 activity in CaCo-2 cells [2]: sub-micromolar; ROS generation, DMA trap, under blue light [3]: significant bleaching; ROS generation, DMA trap, in the dark or with α-tocopherol ([3]; 10 min, dark or α-tocopherol (3 µg/mL)): no/limited bleaching; tolerability by CaCo-2 cells (CaCo-2 cells [4]): well-tolerated; antiviral effect under red light only (SARS-CoV-2; 100 µM, dark room, red light, 60 min at 37 °C): no antiviral effect; antiviral activity after blue light irradiation of virus-compound mixture (SARS-CoV-2): low-nanomolar; antiviral activity under red light only (SARS-CoV-2; up to 10 µM, dark room, red light, 60 min at 37 °C): completely disappeared; replication of FIPV in CRFK cells [5]: potently suppressed the replication; effect of blue light irradiation on cytotoxicity (Vero cells [6]): dramatically increased; tolerability by CRFK cells (CRFK cells): well-tolerated
O=c1[nH]cc(C#Cc2ccc3c4cccc5cccc(c6cccc2c63)c54)c(=O)[nH]1 [Compound 3]	12.7 ± 1.2%		
Cn1cc(C#Cc2ccc3c4cccc5cccc(c6cccc2c63)c54)c(=O)n(C)c1=O [Compound 4]	22.8 ± 0.4%	moderately decreased cell viability	
CC(C)(C)C(=O)OCn1c(=O)c(C#Cc2ccc3c4cccc5cccc(c6cccc2c63)c54)cn(CC(=O)O)c1=O [Compound 5]	20.5 ± 0.2%	moderately decreased cell viability	
CC(C)(C)C(=O)OCn1c(=O)c(C#Cc2ccc3c4cccc5cccc(c6cccc2c63)c54)cn(CC(=O)NCCCCO)c1=O [Compound 6]	18.2 ± 0.2%		
CC(C)(C)C(=O)OCn1c(=O)c(C#Cc2ccc3c4cccc5cccc(c6cccc2c63)c54)cn(CC(=O)NC[C@@H](O)C(C)(C)CO)c1=O [Compound 7]	17.3 ± 0.2%		
CCCCNC(=O)Cn1cc(C#Cc2ccc3c4cccc5cccc(c6cccc2c63)c54)c(=O)n(COC(=O)C(C)(C)C)c1=O [Compound 8]	17.6 ± 0.4%	moderately decreased cell viability	antiviral activity after blue light irradiation of virus-compound mixture (SARS-CoV-2): significant increase of antiviral activity; effect of blue light irradiation on cytotoxicity (Vero cells [6]): no effect
CC(C)(C)C(=O)OCn1c(=O)c(C#Cc2ccc3c4cccc5cccc(c6cccc2c63)c54)cn(CC(=O)NCCO)c1=O [Compound 9]	17.3 ± 0.2%		
CC(C)(C)C(=O)OCn1c(=O)c(C#Cc2ccc3c4cccc5cccc(c6cccc2c63)c54)cn(CC(=O)NCCCO)c1=O [Compound 10]	16.5 ± 0.2%		
CC(C)(C)C(=O)OCn1c(=O)c(C#Cc2ccc3c4cccc5cccc(c6cccc2c63)c54)cn(CC(=O)NCCCCCO)c1=O [Compound 11]	17.2 ± 0.4%		
CC(C)(C)C(=O)OCn1c(=O)c(C#Cc2ccc3c4cccc5cccc(c6cccc2c63)c54)cn(CC(=O)NCCCCCCO)c1=O [Compound 12]	18.1 ± 0.4%	moderately decreased cell viability	
CC(=O)Nc1ccc(C#Cc2ccc3c4cccc5cccc(c6cccc2c63)c54)cc1 [Compound 15]	23.1 ± 0.4%		
O=C(c1ccc(-c2ccc3c4cccc5cccc(c6cccc2c63)c54)s1)N(CCO)CCO [Compound 18]	60.0 ± 2.4%		
CCCCNC(=O)c1ccc(-c2ccc3c4cccc5cccc(c6cccc2c63)c54)s1 [Compound 19]	59.1 ± 1.2%	moderately decreased cell viability	
O=C(O)c1ccc2c3cccc4cccc(c5cccc1c52)c43 [Compound 20]		moderately decreased cell viability	solubility in water (in words) [8]: good solubility in water; penetration into liposomal membranes (in words) ([8]; 10 µM in PBS, EPC/Chol 70/30 mol% liposomes): no fluorescence enhancement; ROS generation, DMA trap, under blue light [3]: minimal photodynamic activities; photodynamic activity (DPBF trap, in words) ([1]; methanol, 450–470 nm): minimal
Clc1cc2c(cc1Cl)Oc1cc(Cl)c(Cl)cc1O2 [TCDD, reference compound]			increase of CYP1A1 mRNA level (CaCo-2 cells [9]; CaCo-2 cells, 10 nM): up to 50 fold
C/C=C(/C)C(=O)O[C@H]1C(C)=C2[C@H]([C@@H]1OC(=O)CCCCCCC)[C@@](C)(OC(C)=O)C[C@H](OC(=O)CCC)[C@@]1(O)[C@H]2OC(=O)[C@@]1(C)O [thapsigargin, reference compound]			expression of HSPA5, DDIT3, HSPA1B (HSP70), CDKN1A (p21), GADD45A (CaCo-2 cells [9]; CaCo-2 cells, 5, 24 and 48 h): increased
